Entries after “also recorded” stand apart in the source; their conditions may differ.
Key:
[1] = tested on: C57 mice; experiment: Serum triglyceride levels in mice; format: in vivo
Protocol: Animals: 48 male C57 mice, SPF grade, 8 weeks old, weighing about 20 g, purchased from Beijing Vital River. All animals maintained a 12-hour alternating circadian rhythm and were given ad libitum access to food and water. […] Mice in the control group were administered a solvent control CMC-Na every day, and mice in each of the administration groups were administered the corresponding drug every day. Intragastric administration was performed for 5 consecutive days, and the mice were given ad libitum access to food and water during administration. Each group of mice was weighed every day, and their body weight, hair, feces, and activities were carefully observed and recorded. Two hours after administration on day 5, blood was collected from the orbit, and the mice were euthanized. The whole blood was left to stand at room temperature for 2 h and centrifuged at 3000 rpm for 15 min, and serum was collected. The serum was placed onto the automatic biochemical analyzer (Google Biotechnology Co., Ltd.) to determine the triglyceride (TG) levels in the serum.

[2] = tested on: NASH model mice; experiment: NASH induced by HF-CDAA diet in mice; format: in vivo, C57 mice
[3] = Metabolic stability in human liver microsomes; format: in vitro ADME
Protocol: A solution of the compound in acetonitrile at a concentration of 500 μM was prepared and diluted in 0.1 M potassium phosphate solution to obtain a 1.5 μM drug working solution. The drug working solution was co-incubated with a human liver microsome working solution at a final concentration of 0.75 mg/mL and a NADPH solution (at a final concentration of 550 μM), and the incubation was terminated by adding an acetonitrile solution at 0 min, 15 min, 30 min, 45 min, and 60 min, respectively. The remaining amount of the compound remained in the system at each time point was detected by using LC/MS, the absolute value k of the slope was measured by plotting the natural logarithm of the percentage of the remaining amount of the compound over time, and the calculation was performed according to the formula: T1/2 (half-life)=ln2/k=0.693/k.

[4] = tested on: PPARα/δ downstream target genes; experiment: Expression of PPARα/δ downstream target genes in mouse liver and skeletal muscle; format: in vivo, C57 mice; details: mice, 0.03 and 0.1 mg/kg, three days
Protocol: C57 mice were divided into three groups, i.e., a control group, a low dose group (0.03 mg/kg), and a high dose group (0.1 mg/kg), with 6 mice in each group. Each group of mice was intragastrically administered compound 1 or a solvent control with the same volume for three consecutive days according to the doses. Three days after administration, the mice were euthanized and dissected for sampling. Liver and skeletal muscle were snap-frozen in liquid nitrogen for subsequent experiments. After extracting RNA in the liver and skeletal muscle, the up-regulation fold of the expression of the PPARα/δ downstream target genes was detected. […] Some of other compounds of the present invention also have similar effects.

[5] = tested on: ANIT-induced cholestasis in mice; experiment: α-Naphthylisothiocyanate (ANIT)-induced cholestasis in mice; format: in vivo, C57 mice
Protocol: Animals: 25 male C57 mice, SPF grade, 8 weeks old, weighing about 20 g, purchased from Beijing Vital River. All animals maintained a 12-hour alternating circadian rhythm and were given ad libitum access to food and water. […] The mice were all fed food and water normally. The molding and administration processes were as follows: the mice in each of the administration groups were intragastrically administered the corresponding doses and types of compounds 6 h before modeling, and the mice in the control group and the model group were administered solvent controls with the same volume. When modeling, except for the control group, the mice in each group were intragastrically administered ANIT at a dose of 80 mg/kg, and the mice in the control group were administered the solvent control with the same volume. The administration was then continued for two days, once per day. Each group of mice was weighed every day, and their body weight, hair, feces, and activities were carefully observed and recorded. Forty-eight hours after giving ANIT for molding, blood was collected from the orbit, the mice were euthanized, and the liver was collected. The right lobular tissue of the liver was fixed with 4% paraformaldehyde and used for sectioning followed by HE staining. The remaining liver tissues were snap-frozen in liquid nitrogen for subsequent assays of other indexes. The whole blood was left to stand at room temperature for 2 h and centrifuged at 3000 rpm for 15 min, and serum was collected. Levels of aspartate aminotransferase (AST), alanine aminotransferase (ALT), alkaline phosphatase (ALP), total bilirubin (TBil), and total bile acid (TBA) in the serum were assayed. The fixed tissue was sent to Wuhan Servicebio Technology Co., Ltd. for preparing HE-stained sections. The test was performed using a tissue and blood alkaline phosphatase (AKP/ALP) activity assay kit (BC2145) purchased from Beijing Solarbio Science & Technology Co., Ltd. The liver tissue stored at −80° C. was taken and placed in liquid nitrogen, about 0.1 g of liver tissue was rapidly cut off, and 1 mL of an extracting solution was added. The mixture was ground thoroughly and centrifuged at 4° C. and 10000 rpm for 10 min, and the supernatant was collected for assay. The assay was performed by referring to the method in the product's instruction. Data were corrected according to protein concentrations of the samples, and the catalytic production of 1 μmol phenol per minute per milligram protein at 37° C. was defined as one enzymatic activity unit.

[6] = target: T1, PPARγ (Homo sapiens, UniProt P37231); experiment: GAL4 hybrid reporter gene method, PPARγ agonistic activity; format: cell-based; details: Cos-7 cells, Gal4-PPARγ (LBD); Rosiglitazone 1 μM = 100%; 16 h
T1 construct: expressed in transfected cells; host or cells: COS-7
T1 sequence (P37231 238-503 limits assumed): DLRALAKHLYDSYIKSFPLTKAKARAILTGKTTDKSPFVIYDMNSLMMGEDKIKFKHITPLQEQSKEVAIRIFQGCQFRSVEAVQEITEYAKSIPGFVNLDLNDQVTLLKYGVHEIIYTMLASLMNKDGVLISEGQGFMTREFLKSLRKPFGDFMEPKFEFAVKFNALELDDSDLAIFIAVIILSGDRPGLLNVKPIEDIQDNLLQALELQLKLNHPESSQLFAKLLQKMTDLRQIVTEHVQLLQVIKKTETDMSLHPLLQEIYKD

[7] = NASH model mice, 0.1 mg/kg intragastric daily, 2 weeks
[8] = compound 1 0.1 mg/kg vs GFT505 10 mg/kg
[9] = human liver microsomes 0.75 mg/mL, NADPH

In the case of Cc1cc(CN2C(=O)CN(c3ccc(C(F)(F)F)cc3)C2=O)cc(C)c1OC(C)(C)C(=O)O [Compound 1, 2-(4-((2,5-Dioxo-3-(4-(trifluoromethyl)phenyl)imidazolidin-1-yl)methyl)-2,6-dimethylphenoxy)-2-methylpropionic Acid], the “triglyceride level in mouse serum (FIG. 1)” value ([1]; 1 mg/kg intragastric, 5 consecutive days) is reported as “significantly reduce the triglyceride level”, the “effect in reducing triglycerides versus positive drugs” value ([1]; compound 1 1 mg/kg vs GFT505 1 mg/kg, pemafibrate 1 mg/kg, fenofibrate 30 mg/kg) is reported as “significantly more effective in reducing triglycerides than GFT505 and pemafibrate at the equivalent dose; also recorded: superior to fenofibrate” and the “pathological state of NASH mice (conclusion)” value ([2]; 0.1 mg/kg) is reported as “significantly improve the pathological state”. For the same compound, the “collagen deposition in liver, sirius red staining (FIG. 8)” value ([2]; NASH model mice, 0.1 mg/kg) was “reduce collagen deposition”, the “inflammatory infiltration in hepatic lobules, HE staining (FIG. 7)” value ([2]; NASH model mice, 0.1 mg/kg) was “reduce inflammatory infiltration” and the “lipid droplets in liver, oil red staining (FIG. 9)” value ([2]; NASH model mice, 0.1 mg/kg) was “reduce the number and area of lipid droplets”. For the same compound, the “liver mRNA expression level of Acta2 (FIG. 12)” value ([2]; NASH model mice, 0.1 mg/kg) was “inhibit the increase”, the “liver mRNA expression level of Ccl2 (FIG. 11)” value ([2]; NASH model mice, 0.1 mg/kg) was “inhibit the increase” and the “liver mRNA expression level of Ccl5 (FIG. 11)” value ([2]; NASH model mice, 0.1 mg/kg) was “inhibit the increase”. For the same compound, the “liver mRNA expression level of Cd11b (FIG. 11)” value ([2]; NASH model mice, 0.1 mg/kg) was “inhibit the increase”, the “liver mRNA expression level of Col1a1 (FIG. 12)” value ([2]; NASH model mice, 0.1 mg/kg) was “inhibit the increase” and the “liver mRNA expression level of Col3a1 (FIG. 12)” value ([2]; NASH model mice, 0.1 mg/kg) was “inhibit the increase”. For the same compound, the “liver mRNA expression level of Tgfb1 (FIG. 12)” value ([2]; NASH model mice, 0.1 mg/kg) was “inhibit the increase”, the “liver mRNA expression level of Tnf (FIG. 11)” value ([2]; NASH model mice, 0.1 mg/kg) was “inhibit the increase” and the “triglyceride content in the liver (FIG. 10)” value ([2]; NASH model mice, 0.1 mg/kg) was “reduce triglyceride accumulation”. The “serum ALT level (FIG. 6)” value [2, 7] was “down-regulated”, the “serum AST level (FIG. 6)” value [2, 7] was “down-regulated” and the “effect on reducing hepatic enzymes versus GFT505” value [2, 8] was “slightly better effect on reducing the levels of hepatic enzymes than that of GFT505 at 10 mg/kg”. For the same compound, the “effect on reducing hepatic triglycerides versus GFT505” value [2, 8] was “superior to that of GFT505 at 10 mg/kg”, the “effect on reducing lipid accumulation versus GFT505” value [2, 8] was “superior to that of GFT505 at 10 mg/kg” and the “therapeutic effect in NASH mice versus GFT505” value [2, 8] was “equivalent therapeutic effect to that of GFT505 at a dose of 10 mg/kg”. The “metabolic stability in human liver microsomes” value ([3]; human liver microsomes) was “very good metabolic stability”, the CLint scaled [3, 9] was 6.2 mL/min/kg and the half-life [3, 9] was over 2 h. The “expression of PPARα/δ downstream target genes in liver and skeletal muscle” value [4] was “significantly up-regulated”, the “intrahepatic cholestasis: liver morphology and serum color (FIG. 2)” value ([5]; ANIT 80 mg/kg, 0.03 and 0.1 mg/kg intragastric) was “effectively improve intrahepatic cholestasis” and the “therapeutic effect on mouse cholestatic model (conclusion)” value ([5]; ANIT model) was “potent therapeutic effect”. The “level of intrahepatic ALP (FIG. 4)” value ([5]; ANIT model, 0.03 and 0.1 mg/kg) was “significantly down-regulate”, the “necrotic areas in the liver, HE staining (FIG. 5)” value ([5]; ANIT model, 0.03 and 0.1 mg/kg) was “dose-dependently reduce the number and area of necrotic areas” and the “serum ALP (FIG. 3)” value ([5]; ANIT model, 0.03 and 0.1 mg/kg) was “a certain tendency to reduce”. The “serum ALT level (FIG. 3)” value ([5]; ANIT model, 0.03 and 0.1 mg/kg) was “dose-dependently and significantly down-regulate”, the “serum AST level (FIG. 3)” value ([5]; ANIT model, 0.03 and 0.1 mg/kg) was “dose-dependently and significantly down-regulate” and the “serum TBA level (FIG. 3)” value ([5]; ANIT model, 0.03 and 0.1 mg/kg) was “dose-dependently and significantly down-regulate”. The “serum TBil level (FIG. 3)” value ([5]; ANIT model, 0.03 and 0.1 mg/kg) was “dose-dependently and significantly down-regulate”, the “ability to improve general appearance of the liver and serum color versus GFT505” value ([5]; compound 1 0.03 mg/kg vs GFT505 30 mg/kg) was “comparable to the effect of GFT505 at 30 mg/kg” and the “effects on reducing hepatic enzymes, total bilirubin and total bile acid versus GFT505” value ([5]; compound 1 0.1 mg/kg vs GFT505 30 mg/kg) was “comparable to that of GFT505 at 30 mg/kg”. The “effect on reducing intrahepatic ALP versus GFT505” value ([5]; compound 1 at the two doses vs GFT505 30 mg/kg) was “slightly superior to that of GFT505 at 30 mg/kg” and the EC50 [6] was 1.66 µM.

From patent US20250136555A1 (HARBIN MEDISAN PHARMACEUTICAL CO., LTD., priority 2022, published 2025)
